Key:
Format in all cases: cell-based
[1] = system: tyrosine aminotransferase (TAT) mRNA expression in human hepatocytes; experiment: Tyrosine Aminotransferase (TAT) mRNA Expression In Vitro Assay in human primary hepatocytes; details: 18 hr, fold change vs DMSO control
Description: Tyrosine Aminotransferase (“TAT”) mRNA Expression In Vitro Assay
The impact of test compounds on hyperglycemic events were assessed by looking at changes in mRNA expression of the gene encoding tyrosine aminotransferase (TAT), which is under direct regulation of the glucocorticoid receptor in human hepatocytes.
Human cryopreserved primary hepatocytes (BioreclamationIVT, M00995-P lot EPB) were plated to 24-well collagen I-coated plates (Becton Dickinson, 354408). Cells were allowed to attach for 4 hr before being challenged with test compounds overnight (18 hr). Cells were harvested and total RNA isolated using RNeasy Plus Mini Kit (Qiagen, 74136) followed by cDNA synthesis using High Capacity cDNA reverse transcription kit (Applied Biosystems, 4368813). Real-time RT PCR was performed on an Applied Biosystems 7500 PCR cycler, using Taqman primers for TAT (Life technologies, Hs00356930_m1) and the reference gene hypoxanthine phosphoribosyltransferase 1 (Life technologies, Hs99999909_m1).
Human cryopreserved primary hepatocytes were transferred in to pre-warmed (37° C.) plating medium (BioreclamationIVT, Z990003) and diluted to 0.7×10^6 viable cells/mL. 500 µL of the cell suspension was plated to each well of a collagen I coated 24-well plate and cells were allowed to sediment and attach at 37° C. for 4 hr. After incubation, the media was gently discarded and exchanged for insulin, glucose, glutamine, pyruvate free media (BioreclamationIVT, S00304), containing compounds of interest, prednisolone at 1 μM, dissolved in DMSO (final DMSO concentration 0.01%), or DMSO alone as control. The plates were then incubated at 37° C. for an additional 18 hr. Media was discarded, and total RNA isolation (Qiagen) and cDNA synthesis (Applied Biosystems) performed according to the manufactures protocol. Real-time RT PCR was carried out using TaqMan reagents (Life technologies) on the 7500 PCR cycler, and Ct-values for TAT gene expression was normalised to the control gene and expressed as fold change compared to DMSO control using the 2^−ΔΔCt method.

[2] = system: release of TNFα from whole blood stimulated with LPS; experiment: In Vitro Human Whole Blood: inhibition of TNFα release from whole blood stimulated with LPS; details: LPS 30 μg/mL, 18 hr, read-out: TNFα pIC50 (converted)
Description: In Vitro Human Whole Blood
Venous blood from human donors was collected and anti-coagulated with sodium heparin and transferred to a sterile polystyrene round bottomed plate (Corning) at 190 μL per well.
Control wells received 1 μL DMSO only and the final DMSO concentration in all wells was 0.5%.
10 μL was added to each well to give a final LPS concentration of 30 μg/mL. Unstimulated controls received PBS only at 10 μL/well. The samples were, again, gently mixed, and the plates incubated overnight for 18 hr. Following incubation, the blood was centrifuged at 700×g for 5 min, and the plasma removed and transferred to freeze at −20° C. before assay for TNFα release.
TNFα protein levels were determined using an AlphaLISA hTNFa kit (Perkin Elmer) according to the manufacturer's instructions. Briefly, the samples were allowed to return to room temperature and centrifuged at 1500×g for 5 min. Samples were diluted 1/5 (5 μL sample in 20 μL AlphaLISA buffer). At the same time, a standard curve of TNFα was prepared by serial 1/3 dilutions from a stock solution (5000-2 pg/mL). 5 μL sample/standard curve were transferred to a 384-well Optiplate™, and to this was added 20 μL anti-humanTNFa acceptor beads/biotinylated antibody mix. The plate was incubated at room temperature for 60 min. After this incubation, 25 μL streptavidin donor beads were added, and the plate was incubated for a further 60 min in the dark at room temperature. […] TNFα in the samples was determined by extrapolation from the standard curve and expressed as pg/mL.
Percent inhibition was plotted against concentration, and a curve graphed using a 4-parameter curve fit (Xlfit 4.1) to determine the pIC50.

[3] = biological target: T1, human glucocorticoid receptor (GR) (Homo sapiens (Human), UniProt P04150); experiment: GRE Agonist Assay (ChagoK1 18:7:2 s4/GRE MMTV-GRE-LacZ reporter cell line); details: for Emax at 1 µM: ChaGo-K-1, relative to full agonist effect of dexamethasone, read-out: TA agonist Observed max Effect at 1 μM (%); for TA agonist pEC50: transactivation in agonist mode, ChagoK1 GRE-LacZ reporter cells, 24 hours
T1 sequence (P04150 whole entry): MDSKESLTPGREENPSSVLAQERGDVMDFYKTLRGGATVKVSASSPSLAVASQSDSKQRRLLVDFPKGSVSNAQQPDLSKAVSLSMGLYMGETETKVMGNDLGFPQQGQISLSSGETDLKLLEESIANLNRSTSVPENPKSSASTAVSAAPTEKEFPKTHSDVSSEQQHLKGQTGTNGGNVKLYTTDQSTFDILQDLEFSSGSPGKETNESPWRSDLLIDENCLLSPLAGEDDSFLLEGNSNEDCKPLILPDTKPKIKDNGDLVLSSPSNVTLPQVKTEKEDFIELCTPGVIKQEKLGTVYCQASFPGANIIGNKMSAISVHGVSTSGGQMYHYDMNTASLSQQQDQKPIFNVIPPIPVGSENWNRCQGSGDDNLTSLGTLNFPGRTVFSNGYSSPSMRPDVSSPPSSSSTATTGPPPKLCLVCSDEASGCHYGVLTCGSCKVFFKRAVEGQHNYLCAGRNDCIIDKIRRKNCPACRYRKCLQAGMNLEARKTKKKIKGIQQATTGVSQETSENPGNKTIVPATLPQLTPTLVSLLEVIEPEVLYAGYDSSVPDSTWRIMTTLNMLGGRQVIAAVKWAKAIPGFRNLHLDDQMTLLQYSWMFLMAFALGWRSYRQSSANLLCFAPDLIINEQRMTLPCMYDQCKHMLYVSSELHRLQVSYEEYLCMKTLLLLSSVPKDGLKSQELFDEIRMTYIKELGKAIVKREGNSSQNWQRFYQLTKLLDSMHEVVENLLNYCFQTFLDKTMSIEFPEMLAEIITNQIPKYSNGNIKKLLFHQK
From the text: GRE Agonist Assay A reporter cell line (ChagoK1 18:7:2 s4/GRE) was established by stable transfection of the human bronchogenic carcinoma cell line, ChaGo K1 (ATCC: HTB 168) with a MMTV-GRE-LacZ reporter construct. The generated cell line allows for identification of compounds showing agonist activity at the human glucocorticoid receptor (GR) via induction of LacZ gene expression. Ligand-activated GR binds to the Glucocorticoid Response Element (GRE) in the promoter of the LacZ gene and transcription is initiated. The resulting beta-galactosidase activity is measured through a colour reaction (change in absorbance). Cryo-preserved ChagoK1 18:7:2 s4/GRE cells were suspended in RPMI medium with 10% FBS, 1% NEAA and 1% sodium pyruvate, and seeded as 50000 cells/200 ul/well in 96-well plates and cultured at 37° C. with 5% CO2 and 95% humidity for 24 hours. 1 μl compound was added at different concentrations to the cells and incubated for another 24 hours. […] The reaction was then terminated by addition of 100 μl stop solution (300 mM glycine, 15 mM EDTA, pH 11.3, adjusted with NaOH). […]) Where A=min Y, B=max Y, C=log EC50 and D=Slope factor

[4] = biological target: T1, human glucocorticoid receptor (GR); experiment: GRE Antagonist Assay (ChagoK1 18:7:2 s4/GRE reporter cells pre-stimulated with dexamethasone); details: for Emax at 1 µM: ChaGo-K-1, relative to full antagonist effect of Mifepristone (RU486), read-out: TA antagonist Observed max Effect at 1 μM (%); for TA antagonist pIC50: transactivation in antagonist mode, pre-stimulated with dexamethasone 70 nM
From the text: GRE Antagonist Assay A reporter cell line (ChagoK1 18:7:2 s4/GRE) was established by stable transfection of the human bronchogenic carcinoma celline, ChaGo K1 (ATCC: HTB 168) with a MMTV-GRE-LacZ reporter construct. The generated cell line allows for identification of compounds showing antagonist activity at the human glucocorticoid receptor (GR) via reduction of LacZ gene expression. Dexamethasone-activated GR binds to the Glucocorticoid Response Element (GRE) in the promoter of the LacZ gene and transcription is initiated. Antagonistic properties of compounds are assessed as beta-galactosidase intensity reduction from pre-stimulation with dexamethasone through a colour reaction (change in absorbance). Cryo-preserved ChagoK1 18:7:2 s4/GRE cells were suspended in RPMI medium with 10% FBS, 1% NEAA and 1% sodium pyruvate, and seeded as 50000 cells/200 ul/well in 96-well plates and cultured at 37° C. with 5% CO2 and 95% humidity for 24 hr. […] The reaction was then terminated by addition of 100 μl stop solution (300 mM glycine, 15 mM EDTA, pH 11.3, adjusted with NaOH). The plates were measured at 420 nm for absorbance in a SpectraMax reader (Molecular Device). […]) Where A=min Y, B=max Y, C=log IC50 and D=Slope factor

IC50 [2] [nM] | Emax at 1 µM [3] [%] | TA agonist pEC50 [3] | Emax at 1 µM [4] [%] | TA antagonist pIC50 [4] | Structure (SMILES) | Fold Change Tyrosine Aminotransferase Gene Expression Relative to Control (1 μM) [1]
251 |  |  |  |  | C[C@]12C=CC(=O)C=C1CC[C@@H]1[C@@H]2[C@@H](O)C[C@@]2(C)[C@H]1CC[C@]2(O)C(=O)CO [Prednisolone, prednisolone, reference compound] | 2.8 (1.3-5.3, n = 10)
 | 42 | 8.3 | 48 | 7.3 | CC(C)[C@H](NC(=O)C(C)(F)F)[C@H](Oc1cc2cnn(-c3ccc(=O)n(C)c3)c2cc1Cl)c1ccccc1 [Example 21, N-[(1R,2S)-1-{[6-chloro-1-(1-methyl-6-oxo-1,6-dihydropyridin-3-yl)-1H-indazol-5-yl]oxy}-3-methyl-1-phenylbutan-2-yl]-2,2-difluoropropanamide] | 
 | 28 | 8.1 | 62 | 6.7 | CC(C)[C@H](NC(=O)C(C)(F)F)[C@H](Oc1ccc2c(cnn2-c2ccc(=O)n(C)c2)c1)c1ccc(OC(F)F)cc1 [Example 11, N-[(1R,2S)-1-[4-(difluoromethoxy)phenyl]-3-methyl-1-{[1-(1-methyl-6-oxo-1,6-dihydropyridin-3-yl)-1H-indazol-5-yl]oxy}butan-2-yl]-2,2-difluoropropanamide] | 
 | 27 | 8.2 | 64 | 7.3 | CC(C)[C@H](NC(=O)C(F)(F)F)[C@H](Oc1ccc2c(cnn2-c2ccc(=O)n(C)c2)c1)c1ccc(C(F)(F)F)cc1 [Example 15, 2,2,2-trifluoro-N-{(1R,2S)-3-methyl-1-{[1-(1-methyl-6-oxo-1,6-dihydropyridin-3-yl)-1H-indazol-5-yl]oxy}-1-[4-(trifluoromethyl)phenyl]butan-2-yl}acetamide] | 

The next lines start with the molecule.

Structure (SMILES) | IC50 [2] [nM] | Emax at 1 µM [3] [%] | TA agonist pEC50 [3] | Emax at 1 µM [4] [%] | TA antagonist pIC50 [4] | Fold Change Tyrosine Aminotransferase Gene Expression Relative to Control (1 μM) [1]
CC(C)[C@H](NC(=O)C(C)(F)F)[C@H](Oc1ccc2c(cnn2-c2ccc(=O)n(C)c2)c1)c1ccccc1 [Example 1, 2,2-difluoro-N-[(1R,2S)-3-methyl-1-{[1-(1-methyl-6-oxo-1,6-dihydropyridin-3-yl)-1H-indazol-5-yl]oxy}-1-phenylbutan-2-yl]propanamide] | 631 | 36 | 8.0 | 56 | 6.8 | 1.0 (0.8-1.4, n = 8)
CC(C)[C@H](NC(=O)C(F)(F)F)[C@H](Oc1ccc2c(cnn2-c2ccc(=O)n(C)c2)c1)c1cccc(Cl)c1 [Example 6, N-[(1R,2S)-1-(3-chlorophenyl)-3-methyl-1-{[1-(1-methyl-6-oxo-1,6-dihydropyridin-3-yl)-1H-indazol-5-yl]oxy}butan-2-yl]-2,2,2-trifluoroacetamide] | 398 | 24 | 8.6 | 67 | 7.3 | 0.9 (n = 1)
CC(C)[C@H](NC(=O)C(C)(F)F)[C@H](Oc1ccc2c(cnn2-c2ccc(=O)n(C)c2)c1)c1cc(F)cc(F)c1 [Example 3, N-[(1R,2S)-1-(3,5-difluorophenyl)-3-methyl-1-{[1-(1-methyl-6-oxo-1,6-dihydropyridin-3-yl)-1H-indazol-5-yl]oxy}butan-2-yl]-2,2-difluoropropanamide] | 100 | 44 | 8.6 | 53 | 7.6 | 1.5 (1.4-1.55, n = 2)
